Consider six compounds from US7285666B2, “Pyrazolo[1,5-a] pyridines and medicines containing the same” (Eisai R&D Management Co., Ltd., priority 2001, dated 2007).

A word on the IC50: it is the point on the concentration scale where inhibition reaches its midpoint.

Assay [1] has as its system CRF-dependent cAMP production in AtT-20 cells. Kind of assay: cAMP production inhibition experiment using AtT-20 cells. The format is cell-based. Particulars: Mus musculus, AtT20, 30 nM CRF, intracellular cAMP by HTRF, read-out: Adenylate cyclase activity IC50. The source says:
<cAMP Production Inhibition Experiment Using AtT-20 Cells>
The AtT-20 cells were of a mouse pituitary gland tumor-derived cell line which is known to respond to Corticotropin-Releasing Factor (CRF), leading to activation of the intracellular adenylate cyclase system, production of cyclic AMP (cAMP), and release of adenocorticotropic hormone (ACTH) (Biochem. Biophys. Res. Com. 106, 1364-1371, 1982). For the experiment, the cells (1×10^5) were suspended in D-MEM medium (0.1% FBS) and seeded in a 96-well plate, phosphodiesterase inhibitor (IBMX, Calbiochem) was added to a final concentration of 1 mM, and were cultured at 37° C. for 30 minutes. A dilution of the test compound was added, culturing was continued for 30 minutes at 37° C., and CRF (30 nM) was added and culturing was continued for 30 minutes at 37° C. The cells were collected by centrifugation (500×g, 5 minutes) and lysed with lysis buffer (0.2% dodecyltrimethylammonium bromide), and the intracellular cAMP production was quantified by the HTRF method. A cAMP kit HTRF (CIS Diagnostics Co., Ltd.) was used for the cAMP quantification.
(2) Calculation of cAMP Production Inhibition
The cAMP production of cells to which 30 nM CRF had been added was defined as 100% (control), and the value for each specimen was represented as a percentage (% of control).
(In general: Changes in cAMP serve as a functional read-out for many G protein-coupled receptors.)

For the next assay, the target named is T1, human CRFR1 (Homo sapiens, UniProt P34998).
T1 construct: The full-length CRFR1 gene was obtained from a human brain cDNA library (QuickClone™, Clontech) by PCR; expressed in transfected cells
T1 sequence (P34998 24-415): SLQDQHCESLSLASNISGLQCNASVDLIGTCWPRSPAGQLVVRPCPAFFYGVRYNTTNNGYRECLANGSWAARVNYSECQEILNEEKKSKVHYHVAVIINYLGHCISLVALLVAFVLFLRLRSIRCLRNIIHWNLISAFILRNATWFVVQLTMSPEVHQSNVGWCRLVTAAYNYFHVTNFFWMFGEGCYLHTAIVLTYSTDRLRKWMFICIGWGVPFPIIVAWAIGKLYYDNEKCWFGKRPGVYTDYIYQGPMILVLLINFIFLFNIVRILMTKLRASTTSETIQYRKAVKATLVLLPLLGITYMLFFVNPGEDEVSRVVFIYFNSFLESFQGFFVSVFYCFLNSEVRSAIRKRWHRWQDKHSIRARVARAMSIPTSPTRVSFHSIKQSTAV
The experiment in a line: CRFR binding experiment (125I-sauvagine SPA, membrane fraction of CRFR1-expressing HEK293 cells). Particulars: 125I-sauvagine displacement, read-out: CRF1 receptor binding affinity IC50. The protocol:
<CRFR Binding Experiment>
(1) Preparation of CRFR-Expressing Cells
Membrane fraction of the cell highly expressing human CRFR1 was used as the experimental material for a CRFR binding experiment. The CRFR expressing cells were prepared in the following manner. The full-length CRFR1 gene was obtained from a human brain cDNA library (QuickClone™, Clontech) by PCR. The obtained DNA fragments were inserted into cloning vectors and the base sequences were determined. cDNA having the correct base sequence was then relinked to an expression vector (pcDNA3.1™, Invitrogen). The CRFR1 expression vector was introduced into HEK293 cells, and the resistant cells which grew in cell medium containing G418 (1 mg/ml) were cloned by limiting dilution. From these cloned cells, the clones with high binding affinity between the membrane fraction and sauvagine per unit of protein in the binding experiment described below were selected out and used for the final experiment.
(2) Preparation of Membrane Fraction
The cloned cells obtained in (1) were collected and disrupted with an ultrasonic generator in sonicate buffer (D-PBS(−) 10 mM MgCl2, 2 mM EGTA). The suspension obtained from ultrasonic disruption was centrifuged (46,000×g, 10 minutes), and the precipitate was resuspended in sonicate buffer and the same procedure was repeated. The final precipitate was then suspended in binding buffer (D-PBS(−) 10 mM MgCl2, 2 mM EGTA, 1.5% BSA, 0.15 mM bacitracin, 1× protease inhibitor cocktail (COMPLETE™, Boehringer)), and used as the membrane fraction after adjusting the protein concentration to 1.6 mg/ml.
The sauvagine binding experiment was conducted following the protocol of SPA™ (Amersham Pharmacia), using a 96-well plate. The experiment was conducted according to the SPA beads instruction manual. After allowing […] of the membrane fraction protein, 0.5 mg of SPA beads and […] of ^125I-sauvagine (Amersham Pharmacia) to stand at room temperature for 2 hours in the presence of the test compound, the mixture was centrifuged (1000×g, 5 minutes) and the radioactivity of each well was measured with a TopCount™ (Packard).
(4) Calculation of Binding Affinity
The radioactivity for non-radioactive sauvagine added in a 1000-fold excess was subtracted from each value as the non-specific binding, and the radioactivity of a sample without addition of the test substance (control) was defined as 100%, with each value represented as a percentage (% of control).

For `CCCN(CCC)c1c(CC)nn2c(-c3ccc(OC)cc3OC)cccc12` [Example 6, N-[7-(2,4-Dimethoxyphenyl)-2-ethylpyrazolo[1,5-a]pyridin-3-yl]-N,N-dipropylamine], the values for the IC50 (in assay [1]; at human CRFR1) were 200 nM and 160 nM, respectively.
`CCCN(CCC)c1c(CC)nn2c(-c3ccc(OC)cc3Cl)cccc12` [Example 3, N-[7-(2-Chloro-4-methoxyphenyl)-2-ethylpyrazolo[1,5-a]pyridin-3-yl]-N,N-dipropylamine]: the IC50 in assay [1] came out at 130 nM.
With `CCc1nn2c(-c3ccc(Cl)cc3Cl)cccc2c1N(CCOC)CC(C)C` [Example 27, N-[7-(2,4-Dichlorophenyl)-2-ethylpyrazolo[1,5-a]pyridin-3-yl]-N-isobutyl-N-(2-methoxyethyl)amine], the 50% inhibitory concentration (IC50) in assay [1] came out at 300 nM; on human CRFR1 it was 55 nM.
The like results for `CCCN(CCC)c1c(SC)nn2c(-c3ccc(Cl)cc3Cl)cccc12` [Example 103, N-[7-(2,4-Dichlorophenyl)-2-methylthiopyrazolo[1,5-a]pyridin-3-yl]-N,N-dipropylamine] were, in that order, 400 nM and 90 nM.
The like results for `CCCN(CCOC)c1c(CC)nn2c(-c3ccc(Cl)cc3Cl)cccc12` [Example 25, N-[7-(2,4-Dichlorophenyl)-2-ethylpyrazolo[1,5-a]pyridin-3-yl]-N-(2-methoxyethyl)-N-propylamine] were, in that order, 550 nM and 210 nM.
`COCCN(CC(C)C)c1c(SC)nn2c(-c3c(C)cc(C)cc3OC)cccc12` [Example 108, N-Isobutyl-N-[7-(2-methoxy-4,6-dimethylphenyl)-2-(methylsulfanyl)pyrazolo[1,5-a]pyridin-3-yl]-N-(2-methoxyethyl)amine]: the 50% inhibitory concentration (IC50) is 20 nM in assay [1] and 50 nM on human CRFR1.
